According to patent publication US20100227797A1, “USE OF CYCLOLIGNANS FOR THE TREATMENT OF TYPE 2 DIABETES AND AS CONTRACEPTIVES” (AXELAR AB, priority 2006, published 2010):
Several values for one entry are separate records, joined by “and”; a condition that tells them apart may be missing. Equal entries are not always repeated. Marks after values point to notes of the source that are not given here.

How the values were obtained:
[1] = Assay of blood glucose in mice after one week picropodophyllin treatment; format: in vivo, SCID mice; conditions: 20 mg/kg/12 h i.p.
Procedure: Ten weeks old SCID mice were treated with PPP (20 mg/kg/12 h) intraperitoneally using DMSO as vehicle. Control mice were treated with vehicle only. Three mice were treated in each group. After treatment for 7 days, the mice were sacrificed 4 h after the last injections. Blood samples were taken and the concentration of glucose in the serum was determined by a dry slide technique using Vitros 950 Chemistry System. In this experiment, healthy SCID mice were treated with picropodophyllin by intraperitoneal injections twice daily, the dose being 20 mg/kg/12 h. The control group was treated with the vehicle only (totally per day: 20 μL DMSO). Each group included 3 mice.

[2] = test system: macular degeneration lesions; assay: Laser induction of macular degeneration lesions, mouse model; format: in vivo, C57Bl/6 mice; parameters: Area of macular degeneration: scale not given here
Procedure: To induce macular degeneration lesions adult C57Bl/6 mice were anesthetized and three laser spots were placed in fundus flavimaculatus of the choroidea with a krypton red laser (614 nm, […], 0.05 second, 200 mW). The mice were then treated with PPP (20 mg/kg/12 h) intraperitoneally using DMSO as vehicle for two weeks. Control mice were treated with vehicle only. Twenty mice were treated in each group. Two weeks after the laser treatment, the animals were perfused with 3% FITC-conjugated high-molecular-weight dextran, sacrificed and choroidal flat mounts were prepared. Flat-mounts were examined with fluorescence microscopy Axioskop microscope. Macular degeneration lesions were identified as FITC-perfused vessels. Image-Pro Plus software was used to measure the area of each CNV lesion. Data were recorded as area of macular degeneration lesions (μm^2). Macular degeneration is the leading cause of vision loss. Macular degeneration lesions were induced in 40 adult C57Bl/6 mice by laser. Twenty animals received intraperitoneal (i.p.) injections of picropodophyllin (PPP; 20 mg/kg/12 h) for 2 weeks. Controls received i.p. injections of vehicle. Two weeks after the laser treatment the animals were sacrificed and choroidal flat mounts were prepared. Flat-mounts were examined with fluorescence microscopy. Image-Pro Plus software was used to measure the area of each CNV lesion.

ovulation = assay: Effect on ovulation in a mouse model; format: in vivo; conditions: female mice
Procedure: Female mice were treated with picropodophyllin (PPP; 20 mg/kg/12 h, given intrapritoneally) on days −1 and 0 of mating. The vaginal plug was checked on the next morning. Six animals from each group were sacrificed 4 days after mating. The organs collected were ovaries, uterus, liver and spleen for biochemical analysis.

[3] = test system: implantation of the embryo; assay: Effect on implantation in a mouse model; format: in vivo, mice; conditions: 20 mg/kg/12 h i.p., day 3 to 6 after plug
Procedure: The animals were put for mating and the vaginal plug was checked on the next morning. Six female mice positive for vaginal plug were treated with picropodophyllin (20 mg/kg/12 h, given intraperitoneally) and six with vehicle (controls) from day 3 to 6 after the plug. They were sacrificed on day 9 after ovulation. The organs collected were ovaries, uterus, liver and spleen for biochemical analysis.

SMILES: COc1cc([C@@H]2c3cc4c(cc3[C@H](O)[C@H]3COC(=O)[C@@H]23)OCO4)cc(OC)c1OC [PPP, picropodophyllin]
- Effect on blood glucose levels ([1]; SCID mice, one week, compared to controls): decreased the blood glucose levels
- Glucose level in serum ([1]; individual SCID mice, 7 days, sampled 4 h after last injection, 20 mg/kg): 4.5 mM (2×) and 5.7 mM
- Glucose level in serum, mean ([1]; mean of 3 SCID mice, 7 days, vehicle control mean 7.0): 4.9 mM
- Area of macular degeneration ([2]; mean, C57Bl/6 mice, 20 mg/kg/12 h i.p. for 2 weeks after laser, vehicle mean 2.565): Mean: 1.753 μm^2
- Decrease in macular degeneration lesion area ([2]; versus vehicle, 20 mg/kg/12 h i.p. for 2 weeks, statistically significant): 32%
- Number of mice with positive plug (ovulation; 20 mg/kg/12 h i.p. on days -1 and 0 of mating, n = 36, vehicle 3 of 6): n = 0
- Percent ovulated mice (ovulation; 20 mg/kg/12 h i.p. on days -1 and 0 of mating, vehicle 50%): 0%
- Inhibition of ovulation (ovulation; 20 mg/kg/12 h i.p., P=0.005919, Fishers exact test): did not ovulate at all
- Effect on implantation of the embryo ([3]; no statistical significance): interferes negatively with implantation
- Number of pregnancies ([3]; 6 plug-positive female mice, sacrificed day 9, vehicle 4 of 6, not statistically significant): 2*
